ChEMBL document CHEMBL1629468, “Synthesis and antitumor activity of novel benzimidazole-5-carboxylic acid derivatives and their transition metal complexes as topoisomerease II inhibitors” (2010)

Columns and labels:
[1] = Growth inhibition of human gastric cancer cells after 72 hrs by sulforhodamine B assay; format: functional; conditions: Cancer cell lines, Stomach, pooled result: one value given for 3 cell lines, strains, targets or settings
[2] = target: DNA topoisomerase 2-alpha (Mus musculus) (UniProt Q01320); assay: Ratio of compound to etoposide on inhibitory effect of mouse DNA topoisomerase 2
[3] = test system: Cancer cell lines; assay: Ratio of compound GI50 to etoposide GI50 for human gastric cancer cells; format: functional, Stomach
[4] = test system: Cancer cell lines; assay: Ratio of compound GI50 to etoposide GI50 for human colon cancer cells; format: functional
[5] = test system: Cancer cell lines; assay: Ratio of compound GI50 to etoposide GI50 for human lung cancer cells; format: functional

Chain of DNA topoisomerase 2-alpha (Mus musculus) (Q01320 whole entry): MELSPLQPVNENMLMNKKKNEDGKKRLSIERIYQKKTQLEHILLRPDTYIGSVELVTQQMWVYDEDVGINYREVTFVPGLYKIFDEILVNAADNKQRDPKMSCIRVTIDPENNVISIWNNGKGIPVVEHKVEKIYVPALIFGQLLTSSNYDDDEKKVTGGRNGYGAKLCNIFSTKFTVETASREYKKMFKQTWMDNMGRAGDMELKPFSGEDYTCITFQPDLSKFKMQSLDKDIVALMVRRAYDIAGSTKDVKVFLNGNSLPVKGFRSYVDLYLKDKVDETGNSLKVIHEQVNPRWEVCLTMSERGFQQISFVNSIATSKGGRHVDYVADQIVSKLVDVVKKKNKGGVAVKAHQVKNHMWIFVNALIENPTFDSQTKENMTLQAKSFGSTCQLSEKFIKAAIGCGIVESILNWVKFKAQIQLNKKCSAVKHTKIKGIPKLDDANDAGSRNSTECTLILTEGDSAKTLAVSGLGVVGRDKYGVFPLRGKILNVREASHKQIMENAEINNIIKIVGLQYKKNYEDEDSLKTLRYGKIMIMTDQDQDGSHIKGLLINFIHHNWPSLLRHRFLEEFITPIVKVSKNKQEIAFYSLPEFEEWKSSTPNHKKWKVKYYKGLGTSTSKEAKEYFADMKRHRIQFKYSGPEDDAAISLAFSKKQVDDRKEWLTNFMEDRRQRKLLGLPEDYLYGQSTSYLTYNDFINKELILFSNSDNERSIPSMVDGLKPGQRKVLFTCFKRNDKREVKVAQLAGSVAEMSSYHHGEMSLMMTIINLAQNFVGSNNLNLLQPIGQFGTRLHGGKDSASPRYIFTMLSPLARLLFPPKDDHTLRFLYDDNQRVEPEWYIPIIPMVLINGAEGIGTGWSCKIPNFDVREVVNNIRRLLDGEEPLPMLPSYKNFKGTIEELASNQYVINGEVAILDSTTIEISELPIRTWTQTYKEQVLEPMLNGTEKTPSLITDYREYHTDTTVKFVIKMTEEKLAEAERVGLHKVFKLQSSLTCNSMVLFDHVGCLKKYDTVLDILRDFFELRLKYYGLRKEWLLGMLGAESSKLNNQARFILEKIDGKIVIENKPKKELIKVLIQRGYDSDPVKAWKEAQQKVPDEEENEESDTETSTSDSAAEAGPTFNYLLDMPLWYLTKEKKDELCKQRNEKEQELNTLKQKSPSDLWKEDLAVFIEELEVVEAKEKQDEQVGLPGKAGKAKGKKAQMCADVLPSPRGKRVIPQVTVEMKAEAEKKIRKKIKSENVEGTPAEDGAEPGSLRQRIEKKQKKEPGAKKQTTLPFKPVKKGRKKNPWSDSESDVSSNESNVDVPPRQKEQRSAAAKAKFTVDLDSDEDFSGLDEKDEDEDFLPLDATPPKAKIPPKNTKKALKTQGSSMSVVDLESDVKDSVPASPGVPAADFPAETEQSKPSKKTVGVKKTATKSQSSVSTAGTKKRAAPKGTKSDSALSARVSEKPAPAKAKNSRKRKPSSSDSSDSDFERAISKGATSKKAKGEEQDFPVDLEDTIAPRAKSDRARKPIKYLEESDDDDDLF

Compound	GI50 [1] [µM]	further results
O=C(O)c1ccc2[nH]c(CCl)nc2c1	> 100	–
O=C(O)c1ccc2[nH]c(C[n+]3ccccc3)nc2c1.[Cl-]	0.095	Ratio [2]: 10; RatioGI50 [3]: 7; RatioGI50 [4]: 7; RatioGI50 [5]: 7
CCc1c2c(nc3ccc(O)cc13)-c1cc3c(c(=O)n1C2)COC(=O)[C@]3(O)CC [7-ETHYL-10-HYDROXYCAMPTOTHECIN]	0.066	–
COc1cc([C@@H]2c3cc4c(cc3[C@@H](O[C@@H]3O[C@@H]5CO[C@@H](C)O[C@H]5[C@H](O)[C@H]3O)[C@H]3COC(=O)[C@H]23)OCO4)cc(OC)c1O [ETOPOSIDE]	1.3	–
O=C(O)c1ccc2[nH]c(CNc3ccncc3)nc2c1	17	–
O=C(O)c1ccc2[nH]c(CNc3nccs3)nc2c1	47	–
O=C(O)c1ccc2[nH]c(CNc3nc4ccccc4[nH]3)nc2c1	> 100	–
O=C(O)c1ccc2[nH]c(CNc3ccccn3)nc2c1	22	–
COc1cccc2c1C(=O)c1c(O)c3c(c(O)c1C2=O)C[C@@](O)(C(=O)CO)C[C@@H]3O[C@H]1C[C@H](N)[C@H](O)[C@H](C)O1 [DOXORUBICIN]	0.065	–
